Where no end group is shown, it is not given here.
Experiments:
[1] = Solubility of test item in phosphate buffered saline; assay type: physicochemical; details: in phosphate buffered saline (PBS; 1×)
Text: The dosage for rats extrapolated using standard guidelines.
(§1) IAEC approval: IAEC approval obtained for conducting the study; test item name: UT-GT-001; batch number: G2467-145; date of manufacture: 9 Nov.

high-fat fed rat model = experiment: Efficacy of the vaccine in high-fat fed rat model
Text: Species details: species: rats (Wistar); justification: the rats (Wistar) are recognized by the international guidelines as the recommended test system and considerable historical data is available; source: good quality, healthy animals were procured from Hylasco Biotechnology India Pvt Ltd, (Reg. No. 1808/PO/RcBt/S/15/CPCSEA); animal age at the time of randomization: 07-08 weeks; animal weight at the time of randomization: males: 170±20 grams.
Husbandry and diet composition: number of animals: a total number of 6 animals (6M) per group; animal identification: individual cage tags; housing: animals were housed in stainless steel cages, one animal per cage; diet: pelleted rodent feed ad libitum; temperature: 30° C.; humidity: 30 to 70%; light: 12 hours light and 12 hours dark; water: RO purified water, ad libitum; cleaning of cages: twice in a week; acclimatization: the period of acclimatization was a minimum of seven days in the experimental room after the veterinary examination.
Formulation was freshly made just before dosing. For the primer dose of vaccine 3 mg peptide was dissolved in 1 ml of 1×PBS sterile solution to make 3 mg/mL stock solution. 0.4 mL of stock solution was combined with 0.4 mL of complete Freund's adjuvant by vigorous vortexing. For booster doses, the same procedure was followed except that the stock solution was combined with an equal amount of incomplete Freund's adjuvant instead of complete Freund's adjuvant.
Once the drop test was passed (the emulsion drop floated on water intact), the final formulation was administered to rats at 50 μL at each site of injection.
After acclimatization period, body weights of rats were recorded. The rats were randomized based on body weight after quarantine period into two groups n=6 per group as disease control (6M) and treatment group (6M). The disease control and treatment groups were given a high fat diet ad libitum for 8 consecutive weeks while the treatment group received the vaccine doses by intramuscular route as per study design as weekly once dosing for 7 consecutive weeks.
Initial primer dose was given only once during the treatment initiation and the remaining 6 booster doses were administered weekly once to the treatment group animals. Sham group animals received a normal rodent diet fortified with fat. Blood samples were collected on week 0, week 2, week 4, week 6 and week 8 from animals and analyzed for fasting blood glucose, triglycerides, total cholesterol and lipid profile. At every blood collection, 12 hour fasting was maintained for animals. On the final necropsy day, animals were subjected to euthanasia and major organs like liver, heart, lungs, kidneys, testes, spleen, and epididymal fat were collected, weighed and recorded. Half portion of liver was stored immediately in liquid nitrogen and kept at −80° C. for oil red stain and the remaining half was stored in 10% formalin solution, which was taken for histological evaluation by hematoxylin and eosin (H & E) staining.
Blood was centrifuged at 40° C., 4000 RPM for 15 minutes to separate serum and plasma. The serum and plasma samples were analyzed for serum biochemistry and fasting blood glucose respectively. Remaining serum samples were stored at −80° C. until dispatch to the test facility.
General clinical observations were conducted twice daily and detailed clinical observations were conducted once daily.

high-fat fed mice model = experiment: Efficacy of the vaccine in high-fat fed mice model (diet induced obesity, DIO); assay type: in vivo, mice - Balb/c
Text: This model is often referred to as diet induced obesity (DIO) model.
as §1
The dosage for mice extrapolated using standard guidelines.
Formulation was freshly made just before dosing. […] Immunization of peptide is along with Freund's adjuvant by proper mixing. […] Once the drop test passed (the emulsion drop floated on water as intact), the final formulation was administered to mice with the volume of 300 μl.
Immunization and blood collection. After the acclimatization period, body weights of mice were recorded.
At every blood collection, 12 hours fasting was maintained for animals. […] Blood samples were given to the diagnostic center for different blood parameter analysis.

[2] = throughout study duration, rats

Substance: GTX-SP-208: test item of the rat study: peptide, anti-hyperlipidemic agent, powder form, Galore Tx Pharmaceuticals; presumably the FATP1 peptide of the vaccine (MRAPGAGAASVVS)
- solubility [1]: 100%

Substance: MRAPGAGAASVVS [vaccine, MRAPGAGAASVVS]
- critical organ weights (toxicology analysis) (high-fat fed rat model; 8 week study): no changes
- hematocrit (toxicology analysis) (high-fat fed rat model; 8 week study): no changes
- liver function (AST and ALT) (toxicology analysis) (high-fat fed rat model; 8 week study): improvement
- adverse clinical signs (high-fat fed rat model; clinical observations, rats): no adverse clinical signs were observed
- hand held observations (high-fat fed rat model; clinical observations, rats): responded normally
- home cage observations (high-fat fed rat model; clinical observations, rats): no abnormalities were observed
- nervous and muscle measurements and other observations (high-fat fed rat model; clinical observations, rats): No abnormalities observed
- open field activity (high-fat fed rat model; [2]): normal
- stimulus response (high-fat fed rat model; [2]): normal
- abnormalities (clinical observation) (high-fat fed mice model): No abnormalities were observed
- adverse clinical signs (high-fat fed mice model): No adverse clinical signs were observed
- high fat diet intake (high-fat fed mice model): normal
- water intake (high-fat fed mice model): normal

Substance: UT-GT-001: test item of the mice study: peptide, anti-hyperlipidemic agent, powder form, Galore Tx Pharmaceuticals; presumably the FATP1 peptide of the vaccine (MRAPGAGAASVVS)
- solubility [1]: 100%

Source: US12502428B1, “Immunotherapeutic composition for prevention of obesity, nonalcoholic fatty liver disease and hypertriglyceridemia, and methods of use and preparation thereof” (Utopia Therapeutics Pvt Ltd., priority 2025, dated 2025)
